In patent US20120295346A1, “METHODS AND COMPOSITIONS FOR MODULATING MEMBRANE POTENTIAL TO INFLUENCE CELL BEHAVIOR” (Tufts University, priority 2009, published 2012):
“Also recorded” adds a separate entry of the source.

How the values were obtained:
Xenopus embryos [1] = assay: Ivermectin-induced hyper-pigmentation with blockers of voltage sensitive pathways; format: in vivo; details: for effect on ivermectin-induced hyper-pigmentation: with 10 μM ivermectin, 0.1 mM cadmium chloride, 0.1 mM verapamil, 50 mM lindane, 20 mM fluoxetine
Protocol: We next sought to examine how changes in membrane voltage are translated into downstream signaling. In order to determine the signaling molecules responding to ivermectin induced depolarization, we examined three known voltage sensitive pathways: calcium, serotonin, and gap junctions. We capitalized on the existence of drugs known to block each of these pathways to determine if any were downstream of ivermectin signaling.
Embryos were exposed to 10 μM ivermectin from stage 10 throughout development. […] The following methods were used in conducting the experiments detailed above.
(§1) Stocks of ivermectin (sigma) were kept at 10 mM concentration in DMSO. Embryo exposure occurred at a 1:1000 dilution (10 μM) in MMR for the stages indicated in each experiment. […] Stocks of strychnine were kept at 1 g in 6 ml of water; embryos were treated with 100 μl of stock in 10 ml of MMR. Drugs and media were replaced every 48 hours.

Xenopus embryos [2] = assay: Drug exposure of Xenopus embryos, hyper-pigmentation phenotype
Text: Ivermectin is known to open vertebrate GlyCl channels, resulting in chloride flux through the membrane (Schonrock, B., and Bormann, J. (1993) Naunyn Schmiedebergs Arch Pharmacol 348, 628-632; Shan, Q., Haddrill, J. L., and Lynch, J. W. (2001) J Biol Chem 276, 12556-12564.).
Xenopus embryos were collected according to standard protocols (Sive, Grainger et al. 2000) in 0.1× Modified Marc's Ringers (MMR) pH 7.8+0.1% Gentamycin. Xenopus embryos were staged according to Nieuwkoop and Faber 1967.
as §1

human melanocytes = assay: Imaging membrane voltage using CC2-DMPE and DiBAC4(3); format: cell-based; details: high potassium media, CC2-DMPE and DiBAC4 dyes
Protocol: CC2-DMPE (N-(6-chloro-7-hydroxycoumarin-3-carbonyl)-dimyristoylphosphatidyl ethanolamine), a coumarin phospholipid, and DiBAC4(3) (bis-(1,3-dibutylbarbituric acid) trimethine oxonol) were purchased from Invitrogen. Stock CC2-DMPE solution was prepared according to manufacturer directions; briefly, a 5 mM stock (in DMSO) was prepared, aliquoted, and stored at −20° C. until immediately before use. DiBAC4(3) stock (1.9 mM in DMSO) was prepared and stored at room temperature. CC2-DMPE stock was dissolved 1:1000 directly into DMEM. DiBAC4(3) stock was dissolved 1:2 in DMSO, then spun at rcf 20,800 for 10 minutes to remove undissolved particles of dye. Supernate was then diluted 1:4000 in DMEM. 1 mL of CC2-DMPE is added to cells grown in 35 mm FluoroDish Sterile Culture Dishes. Cells are incubated for 30 minutes, then washed twice with plain DMEM. 1-2 mLs of DiBAC4(3) are then added to the dish. Cells are incubated at least 30 minutes before imaging begins; cells are imaged while in the DiBAC4(3) bath. A round coverslip is dropped into the dish, and any medium outside the well is removed. […]
An Olympus BX-61 equipped with a Hamamatsu ORCA AG CCD camera, and controlled by IPLabs, was used for imaging. […] No calibration was performed; nonetheless, pixel intensity within and among images can be compared for relative quantification. […]

[3] = system: human epidermal melanocytes; assay: Human melanocyte culture in high potassium media, proliferation and dendrite analysis; format: cell-based
Text: After finding that Xenopus melanocytes responded to modulations in membrane potential, we examined human epidermal melanocytes to assess the impact of membrane depolarization on cell phenotype. For these studies, ivermectin could not be used to depolarize the membrane because the culture medium used to maintain the cells has a much higher chloride ion concentration then that observed intracellularly in these particular cells. Thus, membrane potential was modulated by raising the extracellular potassium concentration by addition of potassium gluconate to the media.
Following two days of culture in 50 mM potassium gluconate supplemented media, human melanocytes developed a highly […] morphology, with a number of cells showing five or more such projections (compare FIGS. 6a and b). […] To verify that melanocytes grown in high potassium medium were in fact depolarized we made use of membrane voltage imaging using CC2-DMPE and DiBAC4 dyes, which allow visualization of the membrane potential (FIG. 6, d and e).
Human melanocytes were obtained commercially and cultured in DermaLife M Melanocyte culture medium (Lifeline Cell Technology, Walkersville, Md.). Cells were maintained within standard 50 ml culture flasks (BD Bioscience, San Jose, Calif.), and were fed with 10 ml warm media every other day. Upon reaching confluence, melanocytes were passaged using a standard trypsonization protocol, and new colonies were seeded at approximately 5,000 cells per cm^2.
For dendrite analysis, cells were imaged on a Nikon AZ100M stereo microscope and the numbers of dendrites on all cells within the field of vision were counted. Cell culture in high potassium media was repeated three times, and the results averaged for statistical analysis.

Xenopus embryos [4] = assay: Ivermectin exposure in MMR with varying levels of chloride; format: in vivo; details: for % hyper-pigmented / Hyper-pigmented (number of embryos) / Normal pigmentation (number of embryos): 10 μM ivermectin from stage 10
Protocol: We next sought to determine whether the alteration of melanocyte behavior was due to GlyCl-dependent changes in transmembrane potential. The intracellular concentration of chloride in an embryo is approximately 60 mM while the extracellular concentration of Modified Marc's Ringers (MMR), the solution in which the embryos are maintained, is 10 mM. If ivermectin constitutively opens chloride channels, ivermectin treatment would be expected to cause an efflux of Cl^− ions, thus resulting in depolarization of the cell membrane. Conversely, if the concentration of external chloride were raised above intracellular levels, chloride ions would enter cells following treatment with ivermectin, thus maintaining a hyperpolarized membrane potential. To test this hypothesis, we raised the concentration of chloride in the extracellular MMR media to 30 mM, 60 mM, or 90 mM and examined the resulting phenotype following ivermectin exposure.
Embryos were exposed to the chloride activator ivermectin (10 μM) from stage 10 throughout development in MMR containing varying levels of chloride.
as §1

melanocytes = assay: Melanocyte counts in ivermectin-exposed Xenopus embryos; format: in vivo
Protocol: We examined whether there is a critical period of ivermectin exposure required for hyperpigmentation. […] One set of animals was exposed to 10 μM ivermectin from stages 10-24 (gastrulation through the completion of neurulation), while the second set were exposed from stages 28-46 (tailbud through tadpole). Early exposed embryos were washed 3× in 0.5×MMR post exposure and transferred to a new dish to remove all drug from the environment.
In order to evaluate the number of melanocytes between treatments, early vs. late exposed embryos were anesthetized in tricane, and then photographed. We then counted the number of melanocytes within the eye region (FIG. 2A, B), and compared each treatment to age-matched control siblings. […] In comparison, embryos exposed to ivermectin during gastrulation and neurogenesis, the time when a subset of neural crest cells become fated to differentiate along a melanocyte fate, show a 1.5 fold increase in melanocyte number compared to controls (FIG. 2C).
Melanocytes were counted by cellAnalyst software (AssaySoft, Inc) on digital photographs of anesthetized larvae. Adobe Illustrator (Adobe Systems Inc) was used to define the dorsal region between the eyes used for counting. Tail regions were defined using digital photographs, starting at the most posterior tip of the tail and counting all melanocytes within a 400 pixel square bounding box extending anteriorly.

[5] = 10 μM ivermectin from stage 10 throughout development, second drug concurrently
[6] = older tadpoles (beyond stage 46) exposed to ivermectin
[7] = ivermectin from gastrulation throughout development

[Cl][Cd][Cl] [cadmium chloride]
effect on ivermectin-induced hyper-pigmentation (Xenopus embryos [1]): did not result in any reduction; also recorded: did not inhibit hyper-pigmentation

CNCCC(Oc1ccc(C(F)(F)F)cc1)c1ccccc1 (stereo not shown) [fluoxetine]
effect on ivermectin-induced hyper-pigmentation (Xenopus embryos [1]): blocked ivermectin-induced hyper-pigmentation in all of the treated embryos; also recorded: completely inhibited

NCC(=O)O [glycine]
hyper-pigmentation phenotype (Xenopus embryos [2]; 3 mM glycine, exposure throughout development): induced the same hyperpigmented phenotype as ivermectin; also recorded: induces hyper-pigmentation at a similar level to ivermectin exposure

Cl[C@H]1[C@H](Cl)[C@@H](Cl)[C@@H](Cl)[C@H](Cl)[C@H]1Cl [lindane]
effect on ivermectin-induced hyper-pigmentation (Xenopus embryos [1]): did not result in any reduction
effect on ivermectin-induced hyper-pigmentation (Xenopus embryos [1]; listed as lindine): did not inhibit hyper-pigmentation

O=C([O-])[C@H](O)[C@@H](O)[C@H](O)[C@H](O)CO.[K+] [potassium gluconate]
membrane potential of treated cells compared to controls (human melanocytes): depolarization
effect on growth in potassium dose response screen ([3]; 40 mM potassium gluconate): non-inhibitory to growth
cell proliferation, standard vs high potassium media ([3]; 50 mM potassium gluconate supplemented media): No measurable differences in cell proliferation
dendricity / number of projections of melanocytes ([3]; 50 mM potassium gluconate supplemented media, two days of culture): significant effect on the number of projections; also recorded: significant effect of potassium gluconate on dendricity

ivermectin
incidence of hyper-pigmentation in words (Xenopus embryos [1]; 10 μM ivermectin alone): strong incidence of hyper-pigmentation
% hyper-pigmented (Xenopus embryos [1]; [5]): 95.3%
Hyper-pigmented tadpoles (number) (Xenopus embryos [1]; [5]): 61
WT tadpoles (number) (Xenopus embryos [1]; [5]): 3
% hyper-pigmented (Xenopus embryos [4]; 10 mM Cl−): 100%
Hyper-pigmented (number of embryos) (Xenopus embryos [4]; 10 mM Cl−): 25
Normal pigmentation (number of embryos) (Xenopus embryos [4]; 10 mM Cl−): 0
% hyper-pigmented (Xenopus embryos [4]; 30 mM Cl−): 95.8%
Hyper-pigmented (number of embryos) (Xenopus embryos [4]; 30 mM Cl−): 23
Normal pigmentation (number of embryos) (Xenopus embryos [4]; 30 mM Cl−): 1
% hyper-pigmented (Xenopus embryos [4]; 60 mM Cl−): 21.7%
Hyper-pigmented (number of embryos) (Xenopus embryos [4]; 60 mM Cl−): 5
Normal pigmentation (number of embryos) (Xenopus embryos [4]; 60 mM Cl−): 18
% hyper-pigmented (Xenopus embryos [4]; 90 mM Cl−): 0%
Hyper-pigmented (number of embryos) (Xenopus embryos [4]; 90 mM Cl−): 0
Normal pigmentation (number of embryos) (Xenopus embryos [4]; 90 mM Cl−): 32
ivermectin hyper-pigmentation phenotype in words (Xenopus embryos [4]; extracellular chloride 10 mM): strong hyper-pigmentation
ivermectin hyper-pigmentation phenotype in words (Xenopus embryos [4]; extracellular chloride 30 mM): did not inhibit hyper-pigmentation; also recorded: strong hyper-pigmentation
ivermectin hyper-pigmentation phenotype in words (Xenopus embryos [4]; extracellular chloride 60 mM): suppressed; also recorded: partial inhibition
ivermectin hyper-pigmentation phenotype in words (Xenopus embryos [4]; extracellular chloride 90 mM): completely inhibited; also recorded: complete inhibition
increase in melanocyte number in eye field relative to controls (melanocytes; 10 μM ivermectin, early exposure stages 10-24): 1.5 fold
melanocyte number in eye field relative to controls (melanocytes; 10 μM ivermectin, late exposure stages 28-46, at stage 46): do not show a significant increase; also recorded: no detectible difference
increase in melanocyte counts in the tip of the tail (melanocytes; ivermectin throughout development): 1.5 fold
generation of more melanocytes (melanocytes; [6]): do not appear to generate more melanocytes
time to expansion of pigment cells (melanocytes; [6]): ≤ 24 h
melanocyte morphology compared to wild type siblings (Xenopus embryos [2]; [7]): take on a dendritic morphology
other disruptions of normal development (Xenopus embryos [2]; [7]): not accompanied by any other observable disruptions of normal development
treated embryos/larvae developing hyper-pigmentation (Xenopus embryos [2]; [7]): 98%
